We go through three compounds from patent US5587478A, “Sapphyrin multimers” (Board of Regents, The University of Texas System, priority 1995, dated 1996).

The conditions of series [1]: diprotonated form; acidic pH; cited from earlier work.
Series [2] is described as follows: Carboxylate binding, summary statements. The text has this: (§1) Quantitative assessments of dicarboxylate binding efficacy in methanol were made using standard spectroscopic techniques. In general, ^1 H NMR methods were employed, with the observed changes in the ^1 H NMR chemical shifts of the aromatic protons of the carboxyl-containing substrate (kept constant in the mM concentration range) being monitored as a function of increased receptor concentration. In some instances, well-resolved shifts could not be observed in the appropriate ^1 H NMR spectra. Here, either visible spectroscopic titration procedures were used or deuterated substrates were employed such that the binding process could be followed by ^2 H NMR.
(§2) More specifically, binding studies were effected by means of ^1 H NMR (General Electric QE-300), ^2 H NMR (Bruker AM-500) and Vis (Beckman DU 640) titrations and were carried out at 293 K. using methanol as the solvent. Methanol-d4 was used for the ^1 HNMR titrations and non-deuterated methanol was used for the ^2 H NMR analyses. For both sets of NMR titrations, the substrate concentration was held constant and the receptor concentration varied. The change in the chemical shifts of the aromatic hydrogen/deuterium atoms of the substrates were then followed and used as a way of monitoring, in a relative way, the concentration of the bound and unbound species. […]

Series [3] can be described thus: U-tube model membrane transport, nitroterephthalate. On the procedure:
(§3) To illustrate the binding of dicarboxylate anions by sapphyrin dimers, transport studies were carried out utilizing a standard U-tube model membrane system. Transport experiments were performed using a glass U-tube at 24°-26° C. Conditions: Source phase: 1 mL of a 1:1:1 ratio of 4-nitrophthalic acid, 5-nitroisophthalic acid and nitroterephthalic acid (10 mM of each) at pH 7.2 (adjusted by the addition of NaOH). Membrane (6 mL); carrier (1a or 23): 0.1 mM in dichloromethane. Receiving phase: 1 mL of H2 O, pH 7.0. The release of the dicarboxylate dianions into the receiving phase was monitored as a function of time via HPLC product analysis achieved using adenosine or uridine as the internal standards. In all cases, control experiments were performed in the absence of carrier. Error is within ±10%.

Series [4] in a line: Binding constant titration in methanol.
Description: as §1, §2

Series [5] in a line: U-tube model membrane transport of dicarboxylates, summary. To be noted: neutral pH. On the procedure:
as §3

Series [6] can be described thus: Binding constant titration in methanol.
Description: as §1, §2
The source holds these as a separate data set.

Series [7] is described as follows: Binding constant titration in methanol.
Description: as §1, §2
This is another data set of the same source.

Series [8] can be described thus: Binding constant titration in methanol.
Description: as §1, §2
This is another data set of the same source.

The nature of series [9]: Binding constant titration in methanol.
Description: as §1, §2
The source holds these as a separate data set.

Series [10] can be described thus: Binding constant titration in methanol. To be noted: for Kd: binding constant, 1H NMR, methanol, 293 K, 23 as bis HCl salt.
Description: as §1
(§4) More specifically, binding studies were effected by means of ^1 H NMR (General Electric QE-300), ^2 H NMR (Bruker AM-500) and Vis (Beckman DU 640) titrations and were carried out at 293 K. using methanol as the solvent. Methanol-d4 was used for the ^1 HNMR titrations and non-deuterated methanol was used for the ^2 H NMR analyses. For both sets of NMR titrations, the substrate concentration was held constant and the receptor concentration varied. The change in the chemical shifts of the aromatic hydrogen/deuterium atoms of the substrates were then followed and used as a way of monitoring, in a relative way, the concentration of the bound and unbound species. For the Vis titrations, the receptor concentration was held constant and the substrate concentration varied. There, the change in absorption of the Soret-like band of receptor 23 was followed. Receptor 23 was used in the form of its bis-HCl salt, 23-2HCl. This salt was prepared by washing a dichloromethane solution of 23 (in its free-base form) three times with independent portions of an aqueous pH 6 solution of HCl, followed by 1) drying over Na2 SO4, 2) evaporative removal of solvent and 3) drying in vacuo. Substrates were used as their trimethylammonium salts. They were prepared by dissolving the relevant dicarboxylic acid in methanol and then bubbling with trimethylamine gas for 10 min. […]

A short description of series [11]: U-tube model membrane transport, 4-nitrophthalate. To be noted: carrier 0.1 mM in dichloromethane; source 10 mM each of three acids, pH 7.2; receiving pH 7; 24-26 °C; error ±10%. On the procedure: as §3
Series [12] is described as follows: Binding constant titration in methanol. To be noted: for Ka: methanol, 293 K, 23 as bis HCl salt.
Description: as §1, §4

Series [13] in a line: U-tube model membrane transport, 5-nitroisophthalate. To be noted: carrier 0.1 mM in dichloromethane; source 10 mM each of three acids, pH 7.2; receiving pH 7; 24-26 °C; error ±10%. On the procedure: as §3
Series [14] can be described thus: Binding constant titration in methanol. To be noted: for Kd: methanol, 293 K, 23 as bis HCl salt, read-out: K1, K2 (converted).
Description: as §1, §4

The next series concerns DNA. Kind of series: DNA binding of unmodified sapphyrin.
Series [15] can be described thus: Protonation state of sapphyrin. Type of series: physicochemical.
[16] abbreviates: Vis spectroscopy, methanol, 293 K, 23 as bis HCl salt.
Setting [17] is: relative to the worst bound substrate, oxalate.

Entries after “also recorded” stand apart in the source; their conditions may differ. Read-outs that look alike come from different tables or passages of the source.

As to `CCC1=C(C)c2cc3[nH]c(c(C)c3CC)c3[nH]c(cc4nc(cc5[nH]c(cc1n2)c(CC)c5CC)C(CC)=C4C)c(CC)c3C` [3,8,12,13,17,22-hexaethyl-2,7,18,23-tetramethylsapphyrin], the “carrier for through-membrane transport” value in [1] is “efficient carrier”.

Consider `CCC1=C(C)c2cc3[nH]c(c(C)c3CC)c3[nH]c(cc4nc(cc5[nH]c(cc1n2)c(C)c5CCC(=O)NCCCNC(=O)CCc1c(C)c2cc5nc(cc6[nH]c(c(C)c6CC)c6[nH]c(cc7nc(cc1[nH]2)C(CC)=C7C)c(CC)c6C)C(C)=C5CC)C(CC)=C4C)c(CC)c3C` [Compound 23, 1,3-bis[12-aminocarbonylethyl-(3,8,17,22-tetraethyl-2,7,13,18,23-pentamethylsapphyrin)]propane], for which the “Affinity and selectivity for carboxylates (in words)” value in series [2] was “little affinity for monocarboxylate-derived substrates; also recorded: very good affinities for certain dicarboxylates; also recorded: preference for linear over bent substrates and aromatic over aliphatic substrates”. Also, the “Initial rate of transport kT, para” value in [3] (carrier 0.1 mM in dichloromethane, source 10 mM each of three acids, pH 7.2, receiving pH 7, 24-26 °C, error ±10%) is given as 6.803 10^-10 mol/cm^2 · h. The “Transport rate of nitroterephthalate relative to 4-nitrophthalate” value in [3] (direct competition experiments) was “three times faster”. In addition, the Ka in [4] (setting [16]) is 5 300 M^-1; in series [6] (2H NMR, methanol, 293 K, 23 as bis HCl salt), 4 600 M^-1; in series [7] (setting [16]) it was 9 100 M^-1; in [8] (setting [16]), 260 M⁻¹; in series [9] (setting [16]), 450 M⁻¹; in series [12] (Vis spectroscopy), 2 500 M^-1. The Ka in [12] (first value, footnote printed c) is 2 400 M^-1. Further, the Selectivity in [4] (setting [17]) was 20.4; in [6] (setting [17]) it was 17.7; in series [7] (setting [17]), 35.0; in series [8] (setting [17]), 1; in [9] (setting [17]) it was 1.7; in [10] (setting [17]), 1.2. Also, the Selectivity in series [12] (setting [17]) came out at 9.4; in series [14] (setting [17]), 5.6. For the same compound, the “Carrier efficacy for dicarboxylates” value in series [5] is on record as “acts as an efficient carrier for a range of dicarboxylates”. In addition, the Kd in [10] (read-out: K1 (converted)) was 3230 µM; in [10] (read-out: K2 (converted)) it was 3570 µM; in series [14] (1H NMR) it was 725 µM; in [14] (2H NMR), 654 µM. Besides, in series [11], the “Initial rate of transport kT, ortho” value is reported as 2.190 10^-10 mol/cm^2 · h. For the same compound, in series [13], the “Initial rate of transport kT, meta” value is reported as 2.926 10^-10 mol/cm^2 · h.

With `CCc1c(CC)c2cc3nc(cc4[nH]c(c(C)c4CC)c4[nH]c(cc5nc(cc1[nH]2)C(CCC(=O)N(CCO)CCO)=C5C)c(CC)c4C)C(C)=C3CCC(=O)N(CCO)CCO` [sapphyrin], the “mode of DNA binding” value with DNA is on record as “not intercalation or groove binding”. Further, the Kd on DNA (unmodified sapphyrin, read-out: binding constant for DNA) was around 1 µM. The “pH range in which sapphyrin remains monoprotonated” value in [15] was 3.5-10 pH.
